The text below walks through data of PubChem BioAssay (NCI).

Test systems include NCI-H23 lung; SR leukemia; IGROV1 ovarian; UACC-257 melanoma; OVCAR-8 ovarian; RXF 393 renal; OVCAR-4 ovarian; SK-MEL-5 melanoma.
Common to all, as to test: NCI tumour cell line growth inhibition, 48 h

Structures are written as SMILES.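 Compound exposure: 48 hours, 5 concentrations, 96-well plates. GI50 is the concentration that inhibits growth by half. At the TGI there is no net growth.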

Regarding `COc1ccc(-c2cc(-c3ccc(Cl)cc3)nc(SCCCC(=O)NO)n2)cc1`, the GI50 is 1.43 µM in the experiment with NCI-H23 lung; 358 nM in the experiment with SR leukemia; 1090 nM with IGROV1 ovarian; 2.31 µM in the experiment on UACC-257 melanoma; 0.427 µM with OVCAR-8 ovarian; 0.359 µM with RXF 393 renal. For the same compound, the results for the GI50 with OVCAR-4 ovarian and in the experiment with SK-MEL-5 melanoma were 0.849 µM and 1.59 µM, respectively. The TGI was 7.06 µM in the experiment with NCI-H23 lung; 3.56 µM in the experiment with IGROV1 ovarian; 10.4 µM in the experiment with UACC-257 melanoma; more than 100 µM with OVCAR-8 ovarian; 1.52 µM in the experiment with RXF 393 renal; 11.6 µM in the experiment on OVCAR-4 ovarian. In the experiment with SK-MEL-5 melanoma, this compound yielded a TGI of 3.31 µM.

Consider `COC(=O)CC[C@]1(C)O[C@H]2[C@H]([C@@H](C)CCCC(C)=O)OC(=O)[C@@H]2C[C@H]1O`, for which the GI50 in the experiment with NCI-H23 lung was 67.8 µM; in the experiment on SR leukemia, more than 100000 nM; in the experiment on IGROV1 ovarian it was 39400 nM; in the experiment on UACC-257 melanoma it was 44.9 µM; with OVCAR-8 ovarian, more than 100 µM; in the experiment on RXF 393 renal it was 60.1 µM. Besides, the GI50 in the experiment on OVCAR-4 ovarian and in the experiment on SK-MEL-5 melanoma was more than 100 µM throughout. In addition, the TGI in the experiment on NCI-H23 lung, in the experiment on SR leukemia, with IGROV1 ovarian, in the experiment with UACC-257 melanoma, in the experiment on OVCAR-8 ovarian and in the experiment on RXF 393 renal was more than 100 µM each time. Besides, the TGI in the experiment on OVCAR-4 ovarian and in the experiment with SK-MEL-5 melanoma was more than 100 µM in each case.

Consider `C=C1C(C2(C)C(OC(C)=O)CC(=O)OC(C)(COC(C)=O)C2CC(=O)OC)C(OC=O)C(OC(=O)C(O)C(C)CC)C2(C)C(c3ccoc3)CC(=O)C12O` (stereo unspecified), for which the TGI in the experiment with NCI-H23 lung is more than 100 µM; with SR leukemia, more than 100 µM; in the experiment on IGROV1 ovarian, more than 100 µM; in the experiment on UACC-257 melanoma, more than 100 µM; in the experiment with OVCAR-8 ovarian, more than 100 µM; with RXF 393 renal it was 6.48 µM. Besides, the TGI with OVCAR-4 ovarian and in the experiment on SK-MEL-5 melanoma was more than 100 µM in each case.

Regarding `CCN(Cc1ccccc1)c1ccc(CO)c(Cl)c1`, the GI50 with NCI-H23 lung is 9.44 µM; in the experiment with SR leukemia, more than 52100 nM; in the experiment on IGROV1 ovarian it was 112 nM; in the experiment on UACC-257 melanoma, 0.131 µM; in the experiment on OVCAR-8 ovarian, 12.1 µM; in the experiment on RXF 393 renal, 6.01 µM. In addition, the GI50 in the experiment with OVCAR-4 ovarian was 0.416 µM; in the experiment on SK-MEL-5 melanoma, 5.83 µM. The TGI is more than 86 µM in the experiment on NCI-H23 lung; more than 100 µM with SR leukemia; 0.934 µM in the experiment on IGROV1 ovarian; 0.316 µM with UACC-257 melanoma; more than 100 µM in the experiment on OVCAR-8 ovarian; more than 49.7 µM in the experiment with RXF 393 renal. The TGI in the experiment on OVCAR-4 ovarian was 12.1 µM; in the experiment on SK-MEL-5 melanoma, 28.7 µM.

Regarding `C/C(=N\Nc1cc(C)c2ccccc2n1)c1ccccn1`, the GI50 was 0.172 µM in the experiment on NCI-H23 lung; less than 29.3 nM in the experiment with SR leukemia; 0.0874 µM in the experiment with UACC-257 melanoma; 0.0535 µM in the experiment on OVCAR-8 ovarian; 0.29 µM in the experiment with RXF 393 renal; 0.13 µM in the experiment on SK-MEL-5 melanoma. Also, the TGI in the experiment on NCI-H23 lung was found to be 8.49 µM; with SR leukemia, 2.39 µM; in the experiment with IGROV1 ovarian, 1.49 µM; in the experiment with UACC-257 melanoma, 0.452 µM; in the experiment on OVCAR-8 ovarian it was 1.35 µM; in the experiment on RXF 393 renal, 1.82 µM. In addition, the TGI in the experiment with OVCAR-4 ovarian turned out to be 2.22 µM; in the experiment on SK-MEL-5 melanoma it was 1.28 µM.

With `C=C(NC(=O)C(=C)NC(=O)c1csc(C2=NC3c4csc(n4)C4NC(=O)c5csc(n5)C(C(C)(O)C(C)O)NC(=O)C5CSC(=N5)C(=CC)NC(=O)C(C(C)O)NC(=O)c5csc(n5)C3(CC2)NC(=O)C(C)NC(=O)C(=C)NC(=O)C(C)NC(=O)C(C(C)CC)NC2C=Cc3c(C(C)O)cc(nc3C2O)C(=O)OC4C)n1)C(N)=O` (stereo unspecified), the GI50 is 13.7 µM in the experiment with NCI-H23 lung; 64800 nM in the experiment with IGROV1 ovarian; 29.4 µM with UACC-257 melanoma; 7.02 µM with OVCAR-8 ovarian; 2.44 µM with RXF 393 renal; 9.45 µM in the experiment on OVCAR-4 ovarian. In the experiment on SK-MEL-5 melanoma, the GI50 is 4.69 µM. Moreover, the TGI in the experiment with NCI-H23 lung is more than 100 µM; in the experiment on SR leukemia, 69.1 µM; with IGROV1 ovarian, more than 100 µM; in the experiment with UACC-257 melanoma, more than 100 µM; in the experiment with OVCAR-8 ovarian it was more than 100 µM; with RXF 393 renal, 7.88 µM. For the same compound, the TGI with OVCAR-4 ovarian is more than 100 µM; with SK-MEL-5 melanoma it was 19.8 µM.

With `CCC(=O)Nc1ccccc1C#C/C=C\C#Cc1ccccc1SC`, the GI50 with NCI-H23 lung is 22.7 µM; in the experiment on SR leukemia, 1680 nM; in the experiment with IGROV1 ovarian, 738 nM; in the experiment with UACC-257 melanoma, 12.1 µM; in the experiment with OVCAR-8 ovarian it was 12.3 µM; in the experiment with OVCAR-4 ovarian it was 30.1 µM. The GI50 in the experiment with SK-MEL-5 melanoma is 3.91 µM. The TGI in the experiment with NCI-H23 lung was more than 100 µM; in the experiment on SR leukemia it was more than 100 µM; in the experiment with IGROV1 ovarian, 37.3 µM; in the experiment with UACC-257 melanoma it was 59.2 µM; with OVCAR-8 ovarian it was more than 100 µM; in the experiment with RXF 393 renal, 1.84 µM. In addition, the TGI is more than 100 µM with OVCAR-4 ovarian and 17.4 µM in the experiment on SK-MEL-5 melanoma.

Turning to `C[C@@H](O)[C@H](NC(=O)N[C@@H](CC(N)=O)c1nc([C@@H](N)CO)no1)C(=O)O`, the GI50 in the experiment with NCI-H23 lung was more than 100 µM; in the experiment with SR leukemia, more than 100000 nM; with IGROV1 ovarian, more than 100000 nM; with UACC-257 melanoma, more than 100 µM; in the experiment on OVCAR-8 ovarian it was more than 100 µM; in the experiment with RXF 393 renal, more than 100 µM. In addition, the GI50 in the experiment with OVCAR-4 ovarian and with SK-MEL-5 melanoma was more than 100 µM throughout. Moreover, the TGI with NCI-H23 lung, in the experiment on SR leukemia, with IGROV1 ovarian, in the experiment with UACC-257 melanoma, in the experiment on OVCAR-8 ovarian and with RXF 393 renal was more than 100 µM each time. The TGI with OVCAR-4 ovarian and with SK-MEL-5 melanoma was more than 100 µM each time.

Regarding `COc1cc(N2CCC(N3CCN(C)CC3)CC2)ccc1Nc1ncnc(Nc2ccccc2S(=O)(=O)C(C)C)n1`, the GI50 in the experiment with NCI-H23 lung is 8.1 µM; in the experiment with SR leukemia, 104 nM; with IGROV1 ovarian, 2640 nM; in the experiment on UACC-257 melanoma, 8.42 µM; in the experiment on OVCAR-8 ovarian, 3.52 µM; in the experiment on RXF 393 renal it was 3.42 µM. Besides, the GI50 was 8.93 µM in the experiment on OVCAR-4 ovarian and 4.62 µM in the experiment with SK-MEL-5 melanoma. The TGI in the experiment with NCI-H23 lung came to 36.6 µM; in the experiment with SR leukemia, 18.7 µM; in the experiment on IGROV1 ovarian, 7.5 µM; in the experiment with UACC-257 melanoma, 27.3 µM; with OVCAR-8 ovarian it was 21.3 µM; with RXF 393 renal, 17.3 µM. The TGI with OVCAR-4 ovarian was 42.2 µM; in the experiment with SK-MEL-5 melanoma it was 18.1 µM.
